Assays:
[1] = biological target: T1, human notum pectinacetyltransferase (Homo sapiens, UniProt Q6P988); experiment: Binding assay (OPTS esterase substrate, fluorimetric); format: biochemical; conditions: class symbols
T1 construct: made in house; unpurified conditioned medium used
T1 sequence (Q6P988 20-496): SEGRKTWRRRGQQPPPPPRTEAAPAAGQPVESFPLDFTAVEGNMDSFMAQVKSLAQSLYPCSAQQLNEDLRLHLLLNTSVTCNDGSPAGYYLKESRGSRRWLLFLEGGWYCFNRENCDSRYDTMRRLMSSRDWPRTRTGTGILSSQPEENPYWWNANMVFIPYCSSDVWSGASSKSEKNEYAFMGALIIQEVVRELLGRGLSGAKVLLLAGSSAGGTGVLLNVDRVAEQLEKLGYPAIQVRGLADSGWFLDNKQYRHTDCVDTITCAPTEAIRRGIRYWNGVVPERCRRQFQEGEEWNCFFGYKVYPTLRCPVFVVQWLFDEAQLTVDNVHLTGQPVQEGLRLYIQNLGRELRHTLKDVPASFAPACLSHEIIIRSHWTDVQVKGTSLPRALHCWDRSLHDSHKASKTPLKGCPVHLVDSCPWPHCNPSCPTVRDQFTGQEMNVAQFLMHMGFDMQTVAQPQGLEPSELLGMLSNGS
Experimental: Plasmid containing human notum pectinacetyltransferase in pcDNA3.1(+) vector was transfected into HEK (293 cells and clones were selecting by growing in presence of 400 ug/mL of G418. Condition media from these cells was used for the assay.

[2] = biological target: T1, human notum pectinacetyltransferase; experiment: Reporter assay (CellSensor LEF/TCF-bla FreeStyle 293F cells, Wnt3a and notum conditioned media); format: cell-based; conditions: class symbols
Experimental: Plasmid containing human notum pectinacetyltransferase in pcDNA3.1(+) vector was transfected into HEK (293 cells and clones were selecting by growing in presence of 400 ug/mL of G418. The clone containing highest expression of human notum pectinacetyltransferase in the conditioned media was maintained for all future activity assays. L cells overexpressing and secreting Wnt3a into the conditioned media were purchased from ATCC.
The assay protocol was as follows. […] The cell growth medium consisted of DMEM with 10% Dialyzed FBS, 5 μg/ml Blasticidin (Invitrogen, R210-01), 0.1 mM NEAA, 25 mM HEPES and 1×GPS. Cells were then trypsinized by first rinsing with PBS, followed by addition of 5 mL of trypsin and incubation of plates at room temperature for two minutes. A total of 10 mL of assay media (Opti-MEM, plus 0.5% dialyzed FBS, 0.1 mM NEAA, 1 mM sodium pyruvate, 10 mM HEPES, 1×GPS) was then added per 15 cm plate. Cells were counted and suspended at 0.75 million cells per mL. […] After incubation of cells at 37° C. for 3 hours, 10 μL of 30 mM LiCl in assay medium was added per well, followed by incubation at 37° C. for another 3 hours. […] Ten μL of the Wnt3a/notum pentinacetyltransferase mixture was then transferred from Greiner plates to each well of the 384-well plates containing the CellSensor cells.

Compound	IC50 [1] [nM]	EC50 [2] [nM]
COc1ccc2c(c1Cl)CCc1cc(C(=O)N3CCC(C#N)C3)sc1-2 (stereo not drawn)	< 100	< 50
N#CC1CCN(C(=O)c2cc3c(s2)-c2cccc(F)c2CC3)C1 (stereo not drawn)	< 100	< 50
O=C1CCN(C(=O)c2cc3c(s2)-c2ccc(Cl)c(Cl)c2OC3)C1	< 100	< 50
N#CC1CCN(C(=O)c2cc3c(s2)-c2ccc(Cl)c(Cl)c2OC3)C1 (stereo not drawn)	< 100	< 50
CC1Cc2ccccc2-c2sc(C(=O)O)cc21 (stereo not drawn)	< 2000	< 50
NC(=O)c1cc2c(s1)-c1ccccc1S(=O)(=O)C2	< 1000	< 50
COc1ccc2c(c1Br)CCc1cc(C(=O)O)sc1-2	< 50	< 50
O=C(O)c1cc2c(s1)-c1cccc(Cl)c1OC2	< 1000	< 50
NC(=O)c1cc2c(s1)-c1cccc(Cl)c1CC2	< 1000	< 50
O=C(O)c1cc2c(s1)-c1cccc(Cl)c1CC2	< 100	< 50
Cc1cc(Cl)c2c(c1)-c1sc(C(N)=O)cc1CC2	< 50	< 50
NC(=O)c1cc2c(s1)-c1c(F)ccc(Cl)c1OC2	< 50	< 50
O=C(O)c1cc2c(s1)-c1c(F)ccc(Cl)c1OC2	< 1000	< 50
COc1cc(F)c2c(c1)-c1sc(C(=O)O)cc1CC2	< 1000	< 50
Cc1cccc2c1OCc1cc(C(=O)O)sc1-2	< 2000	< 50
NC(=O)c1cc2c(s1)-c1c(Cl)ccc(Cl)c1OC2	< 50	< 50
O=C(O)c1cc2c(s1)-c1c(F)ccc(F)c1OC2	< 100	< 50
CN(C)c1ccc2c(c1)CCc1cc(C(=O)O)sc1-2	< 2000	< 500
CNc1ccc2c(c1)CCc1cc(C(=O)O)sc1-2	< 2000	< 50
CC1(C)Cc2cc(C(=O)O)sc2-c2ccc(Cl)cc21	< 2000	< 50

Compound	IC50 [1] [nM]	EC50 [2] [nM]
O=C(O)c1cc2c(s1)-c1ccc(F)cc1OC2	< 2000	< 50
O=C(O)c1cc2c(s1)-c1cc(F)c(F)cc1S(=O)(=O)C2	< 2000	< 500
O=C(O)c1cc2c(s1)-c1cc(F)c(F)cc1SC2	< 100	< 50
CC1(C)Cc2cc(C(=O)O)sc2-c2cc(F)c(F)cc21	< 2000	< 50
NC(=O)c1cc2c(s1)-c1c(cc(F)c(F)c1F)OC2	< 50	< 50
NC(=O)c1cc2c(s1)-c1cc(Cl)ccc1SC2	< 1000	< 50
Cc1cc(Cl)cc2c1OCc1cc(C(N)=O)sc1-2	< 1000	< 50
Cc1cc(Cl)cc2c1OCc1cc(C(=O)O)sc1-2	< 1000	< 50
O=C(O)c1cc2c(s1)-c1cc(Cl)c(C(F)(F)F)cc1OC2	< 1000	< 50
O=C(O)c1cc2c(s1)-c1cc(F)ccc1S(=O)(=O)C2	< 1000	< 50
Cc1ccc2c(c1)-c1sc(C(N)=O)cc1CS2	< 2000	< 50
NC(=O)c1cc2c(s1)-c1c(F)cccc1OC2	< 50	< 50
COc1ccc2c(c1Cl)CCc1cc(C(=O)N3CCC(F)C3)sc1-2 (stereo not drawn)	< 50	< 50
COc1ccc2c(c1Cl)CCc1cc(C(=O)N3CCC(OC)C3)sc1-2 (stereo not drawn)	< 50	< 50
COC1CCN(C(=O)c2cc3c(s2)-c2cccc(F)c2CC3)C1 (stereo not drawn)	< 50	< 50
O=C(c1cc2c(s1)-c1cccc(F)c1CC2)N1CCC(F)C1 (stereo not drawn)	< 1000	< 50
O=C(c1cc2c(s1)-c1ccc(Cl)c(Cl)c1OC2)N1CCC(F)C1 (stereo not drawn)	< 1000	< 50
O=C(c1cc2c(s1)-c1ccc(F)c(F)c1CC2)N1CCC(F)C1 (stereo not drawn)	< 100	< 50
O=C(c1cc2c(s1)-c1cc(Cl)cc(F)c1OC2)N1CCC(F)C1 (stereo not drawn)	< 1000	< 50

Source: patent US9624238B2, “4H-thieno[3,2-C]chromene-based inhibitors of Notum Pectinacetylesterase and methods of their use” (Lexicon Pharmaceuticals, Inc., priority 2011, dated 2017)
